Assay results reported in publication PMC10643673, “An immunomodulating peptide with potential to suppress tumour growth and autoimmunity” (Scientific Reports, 2023).
Where a SMILES comes first, the peptide text is derived from it. [ ]: non-standard residue; d: D form. Gly(decyl) = CCCCCCCCCC[C@H](N)C(=O)O

Key:
[1] = system: exhausted CD4+ T cells derived from MBP-tracker mouse splenocytes; test: Murine splenocyte-derived exhausted CD4+ T cell assay; assay type: cell-based; settings: highest concentration 1.25 µM
Method: Concept Life Sciences have established a proprietary method for assessing murine CD4+ T cell exhaustion in vitro using Tg4-Ly5.1 MBP-Tracker Mice obtained from the University of Edinburgh. Spleens were removed from transgenic B10PLxC57BL/6 mice and processed to generate a single cell suspension of splenocytes. Myelin basic protein (MBP)-Tracker splenocytes were resuspended at 3 × 10^6/mL and stimulated 72 h at approximately 37 °C, 5% CO2, with altered peptide ligand (APL)-MBP (to generate exhausted cells). Following stimulation, T cells were purified by Ficoll density gradient, and subsequently re-plated at 2 × 10^6/mL in 20 U/mL IL-2 for four days. At the end of this rest period, cells were resuspended (4 × 10^5/mL, final 2 × 10^4 per well) and restimulated using irradiated APCs (from B10PLxC57BL/6 mice, 4 × 10^6/mL, final concentration of 2 × 10^5 cells per well) plus a single dose of APL-MBP peptide together with IK14004 peptide for 72 h.
Supernatants were sampled from culture wells for assessment of IL-2 and IFN-γ by ELISA (eBioScience, Lot # 4280695 and Lot #. 4308729, respectively) and flow cytometry used for assessment of CD25 and Ki67 (eBioScience, Lot # 4276862 and Lot # 4296884, respectively). Anti-PD-1 and IgG2a antibodies were obtained from BioXCell.

[2] = system: K562 erythroleukemic cells; test: K562/PBMC co-culture cytotoxicity assay (Calcein AM release); settings: PBMCs exposed to peptide 48 h, then 4 h co-culture at 5:1 ratio; 0.08 to 1.25 µM
Method: Human PBMCs (2.5 × 10^5 cells per well) were cultured in 96-well round-bottom tissue culture plates for 48 h at 37 °C, 5% CO2 in the presence of IK14004 and IKD14004 peptides. After peptide exposure, PBMCs were co-cultured with Calcein AM stained K562 cells (5 × 10^4/well) at a 5:1 ratio for 4 h at 37 °C, 5% CO2. For spontaneous release control Calcein AM-K562 cells alone were treated with PBS (20 µL). For maximal release control Calcein AM-K562 cells alone were treated with lysis buffer (20 µL). After 4 h culture, 150 µL supernatant were transferred to black wall plates and intensity of Calcein green fluorescence release detected using GloMax® Discover to determine percentage of specific cytotoxicity.

[3] = system: splenocytes / CD4+ T cells; test: Splenocytes from LLC lung metastasis model, fresh or cultured overnight with/without TCR stimulation; assay type: in vivo, mouse; settings: peptide- vs vehicle-treated mice; after 24 h
Method: Spleens were collected and processed into a single cell suspension. Fresh splenocytes were assessed by means of flow cytometry with CD28 (BV421) and 2 × 10^5 cells per well were then cultured overnight with or without TCR stimulation (anti-CD3 alone or in combination with anti-CD28 both at 2 µg/mL, plate bound overnight in PBS at 4 °C). After overnight culture cell free supernatants were collected and assessed for IFN-γ and IL-2 by ELISA (eBioscience Kits) and set up in technical triplicate. Cells before and after stimulation were stained for flow cytometry (viability, CD4, CD28 (BV711), IL-12Rβ1 and IL-12Rβ2.

human NK cells = test: Isolated CD3−/CD56+dim NK cell cultures, flow cytometry; assay type: cell-based; settings: 24 h; all concentrations
Method: CD3−/CD56+^dim NK cell populations were isolated from PBMCs using immuno-magnetic separation (Stem cell, Lot no. 18A86421). CD56^+ NK cells were resuspended in RPMI-10 (RPMI-1640 supplemented with 10% heat inactivated FBS, 100 U/mL penicillin, 100 µg/mL streptomycin, 2 mM L-glutamine, and 50 µM β-mercaptoethanol) at 0.25 × 10^6/mL and plated at a density of 2.5 × 10^4 per well (100 µL) in 96-well, flat bottom culture plates. Purified NK cells were cultured together with either IK14004 or recombinant IL-2 (InVitrogen, Lot #223086-011) for […] at 37 °C, 5% CO2.
(§1) Staining was performed to determine cell viability (Flexible Viability Dye eFluorTM 780; ThermoFisher) and expression of extracellular/intracellular markers assessed using fluorescently-labelled antibodies against human proteins within different cell populations. […] After 24 h cells were collected and CD4+ and CD8+ T cells assessed for TCRα/β expression (PE; BioLegend). Phospho-STAT4 in was assessed in TCR-activated CD3 + T cell and PBMC cultures. […] Cells were then stained with fluorochrome conjugated anti-pSTAT4 antibody (eBioscience, Lot# 12-9044) and intracellular expression determined within CD8+ T cells by flow cytometry. Similarly, anti-CD3-stimulated PBMC cultures were exposed only to recombinant IL-12p70 (Peprotech, Lot #0617596) and pSTAT4 assessed within CD4+ /CD8+ T cell fractions. […]

[4] = system: splenocyte-derived CD4+ T cells and NK cells; settings: mouse, in vivo
Method: LLC cells sourced from ATCC. The Lewis lung cancer cell line was cultured to approximately 70% confluency before cells were collected and resuspended at 5 × 10^6 /mL in sterile HBSS. […] were injected subcutaneously with 5 × 10^5 cells (100 µL) into the right flank. Mice were randomly assigned to treatment groups 5 days after tumour cell implantation such that the average tumour size was approximately equal between the two groups. Test substance IK14004 or vehicle were administered twice weekly (Monday and Thursday) via intraperitoneal (i.p.) injections, from day 5 post tumour cell implantation, until the tumours reached an average of 10 mm in diameter in the vehicle treated group. Tumours were measured three times each week using digital callipers and once the mean tumour size for the vehicle group reached 10 mm in diameter, mice were sacrificed by cervical dislocation and tumour and spleens collected. Spleens were processed into single cell suspensions and the red blood cells lysed. Fresh splenocyte suspensions were assessed by trypan blue exclusion. From fresh splenocyte suspensions, 1 × 10^6 viable cells were stained using a viability dye (Flexible Viability Dye eFluorTM 780; ThermoFisher), CD4 (BV605), NK1.1 (BV510), CD25 (AF488), IL-12Rβ1 (PE) and IL-12Rβ2 (APC) for flow cytometry.

[5] = system: Lewis lung cancer (LLC) cells; test: Cancer cell proliferation assay (SRB); assay type: cell-based, mouse; settings: 72 h, doxorubicin 2.5 µM, positive control
Method: Lewis lung cancer (LLC) cells (sourced from the American Type Culture Collection) were seeded into 96-well plates (1000 cells/well) in complete cell culture medium and allowed to attach for 24 h (37 °C, 5% CO2 in air). Next, an equal volume of either cell culture medium only, or 2 × concentration of drug dissolved in cell culture medium, was added to each of 5 replicate wells (technical replicates) to expose cells to concentrations of IK14004 in the dose range from 0 to 5 µM. Cells were cultured for 72 h in the presence of either IK14004 or Doxorubicin (2.5 µM; positive control) and then the cell culture medium was removed and the attached cells fixed in ice-cold trichloroacetic acid. Fixed cells were stained with Sulforhodamine B (SRB) and then washed with 1% acetic acid to remove unbound dye. The retained dye was solubilised in 10 mM Tris base solution and the absorbance at 550 nm was measured with the baseline (media only without cells) subtracted. The data were normalised between the maximum proliferation (100%, cells with no drug) and the starting cell density (0%, cells before addition of drug). Each experiment was performed on two independent occasions (biological replicates).

[6] = system: human PBMCs (CD4+/CD8+ T cells, NK cells); test: Anti-CD3-stimulated human PBMC cultures, flow cytometry/ELISA; assay type: cell-based; settings: rIL-12p70 10 ng/mL; 72 h
Method: Preparations of peripheral blood mononuclear cells (PBMCs) and isolated T cells from buffy coat samples were performed using SepMate tubes, EasySep selection and enrichment kits, Lymphoprep, RoboSep Buffer, and EasySep magnets (STEMCELL Company). PBMCs were resuspended in RPMI-10 (RPMI-1640; ThermoFisher) supplemented with 10% heat inactivated Foetal Bovine Serum (LabTech), 100 U/mL penicillin, 100 µg/mL streptomycin (ThermoFisher), 2 mM L-glutamine (ThermoFisher), and 50 µM β-mercaptoethanol (ThermoFisher) at 1 × 10^6 cells/mL and plated at a density of 1 × 10^5 per well (100 µL) in 96-well, flat-bottom culture plates. […]
as §1, with “[…] Flow cytometry data” for “Similarly, anti-CD3-stimulated PBMC cultures”, “exported as FCS files from Attune™ NxT software” for “exposed only to recombinant IL-12p70 (Peprotech, Lot #0617596)”, “analysed using FlowJo™ software.” for “pSTAT4 assessed within CD4+ /CD8+ T cell fractions.”

CCCCCCCCCC[C@H](NC(=O)[C@H](CCCCCCCCCC)NC(=O)[C@H](CCCCCCCCCC)NC(=O)[C@H](CCCCCCCCCC)NC(=O)[C@H](CCCNC(=N)N)NC(=O)[C@H](Cc1ccc(O)cc1)NC(=O)[C@H](CC(C)C)NC(=O)[C@@H]1CCCN1C(=O)[C@H](CC(N)=O)NC(=O)[C@H](CCCCN)NC(=O)[C@H](C)NC(=O)[C@H](CCCCN)NC(=O)[C@H](CO)NC(=O)[C@@H](N)CCCNC(=N)N)C(N)=O [IK14004, RSKAKNPLYR-(2)Adod-(2)Adod-(2)Adod-(2)Adod-amide] (H-RSKAKNPLYR[Gly(decyl)][Gly(decyl)][Gly(decyl)][Gly(decyl)]-NH2)
visual signs of cell death at end of splenocyte culture [1]: no visual signs of cell death
significant K562 cytotoxicity [2]: at most concentrations
viability of cultured splenocytes [3]: no differences
percentage of viable NK cells (human NK cells): remained unchanged
viability of freshly harvested splenocytes [4]: ~100%

COc1cccc2c1C(=O)c1c(O)c3c(c(O)c1C2=O)C[C@@](O)(C(=O)CO)C[C@@H]3O[C@H]1C[C@H](N)[C@H](O)[C@H](C)O1 [doxorubicin]
proliferation of the LLC cell line [5]: total cell kill

B1: rIL-12p70: recombinant IL-12p70 (Peprotech), 10 ng/mL (protein, UniProt P29459 23-219; P29460 23-328, looked up)
Interleukin-12 subunit alpha: RNLPVATPDPGMFPCLHHSQNLLRAVSNMLQKARQTLEFYPCTSEEIDHEDITKDKTSTVEACLPLELTKNESCLNSRETSFITNGSCLASRKTSFMMALCLSSIYEDLKMYQVEFKTMNAKLLMDPKRQIFLDQNMLAVIDELMQALNFNSETVPQKSSLEEPDFYKTKIKLCILLHAFRIRAVTIDRVMSYLNAS
Interleukin-12 subunit beta: IWELKKDVYVVELDWYPDAPGEMVVLTCDTPEEDGITWTLDQSSEVLGSGKTLTIQVKEFGDAGQYTCHKGGEVLSHSLLLLHKKEDGIWSTDILKDQKEPKNKTFLRCEAKNYSGRFTCWWLTTISTDLTFSVKSSRGSSDPQGVTCGAATLSAERVRGDNKEYEYSVECQEDSACPAAEESLPIEVMVDAVHKLKYENYTSSFFIRDIIKPDPPKNLQLKPLKNSRQVEVSWEYPDTWSTPHSYFSLTFCVQVQGKSKREKKDRVFTDKTSATVICRKNASISVRAQDRYYSSSWSEWASVPCS
percentage of pSTAT4-expressing CD8+ T cells [6]: as did the percentage of pSTAT4-expressing CD8+ T cells
proportion of pSTAT4-expressing CD4+ T cells [6]: increased
